# Experiments:
# kochia [1] = assay: Test C preemergence; format: in vivo, Bassia scoparia; conditions: Preemergence, 1000 g ai/ha; visual rating after 10 days, 0 to 100 scale (0 no effect, 100 complete control)
# How it was run: (§1)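 Visual injury ratings on a 0–100 scale (100 = complete control) were made against untreated controls 10 days after treatment in the greenhouse. Compounds, formulated with surfactant in non-phytotoxic solvent, were sprayed on soil preemergence or onto one- to two-leaf plants 2–10 cm tall postemergence.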
# ryegrass, Italian [2] = assay: Test C preemergence; format: in vivo, Lolium multiflorum; conditions: Preemergence, 1000 g ai/ha; visual rating after 10 days, 0 to 100 scale (0 no effect, 100 complete control)
# How it was run: as §1
# foxtail, giant [3] = assay: Test C postemergence; format: in vivo, Setaria faberi; conditions: Postemergence, 1000 g ai/ha
# How it was run: as §1
# barnyardgrass [4] = assay: Test C preemergence; format: in vivo, Echinochloa crusgalli; conditions: Preemergence, 1000 g ai/ha; visual rating after 10 days, 0 to 100 scale (0 no effect, 100 complete control)
# How it was run: as §1
# Pigweed, Redroot [5] = assay: Test C preemergence; format: in vivo, Amaranthus retroflexus; conditions: 1000 g ai/ha, visual rating after 10 days, 0 to 100 scale (0 no effect, 100 complete control)
# Source text: (§2) Seeds of plant species selected from barnyardgrass (Echinochloa crusgalli), blackgrass (Alopecurus myosuroides), corn (Zea mays), foxtail, giant (giant foxtail, Setaria faberi), green foxtail (Setaria viridis), goosegrass (Eleusine indica), kochia (Bassia scoparia), oat, wild (wild oat, Avena fatua), pigweed, palmer (palmer amaranth, palmer pigweed, Amaranthus palmeri), Pigweed, Redroot (redroot pigweed, Amaranthus retroflexus), ragweed (common ragweed, Ambrosia artemisiifolia), ryegrass, Italian ([…] ryegrass, Lolium multiflorum), soybean (Glycine max), and wheat (Triticum aestivum) were planted into a blend of loam soil and sand and treated preemergence with a directed soil spray using test chemicals formulated in a non-phytotoxic solvent mixture which included a surfactant. At the same time, plants selected from these crops and weed species and also galium (catchweed bedstraw, Galium aparine) and horseweed (Erigeron canadensis) were planted in pots containing the same blend of loam soil and sand and treated with postemergence applications of test chemicals formulated in the same manner. Plants ranged in height from 2 to 10 cm and were in the one- to two-leaf stage for the postemergence treatment. Treated plants and untreated controls were maintained in a greenhouse for 10 days, after which time all treated plants were compared to untreated controls and visually evaluated for injury. Plant response ratings, summarized in Table C, are based on a 0 to 100 scale where 0 is no effect and 100 is complete control. A dash (-) response means no test result.
# kochia [6] = assay: Test C postemergence; format: in vivo, Bassia scoparia; conditions: Postemergence, 1000 g ai/ha
# How it was run: as §1
# ragweed [7] = assay: Test C postemergence; format: in vivo, Ambrosia artemisiifolia; conditions: Postemergence, 1000 g ai/ha
# How it was run: as §1
# ragweed [8] = assay: Test C preemergence; format: in vivo, Ambrosia artemisiifolia; conditions: Preemergence, 1000 g ai/ha; visual rating after 10 days, 0 to 100 scale (0 no effect, 100 complete control)
# How it was run: as §1
# wheat = assay: Test C postemergence; format: in vivo, Triticum aestivum; conditions: Postemergence, 1000 g ai/ha
# How it was run: as §1
# galium = assay: Test C postemergence; format: in vivo, Galium aparine; conditions: Postemergence, 1000 g ai/ha
# How it was run: as §1
# blackgrass = assay: Test C postemergence; format: in vivo, Alopecurus myosuroides; conditions: Postemergence, 1000 g ai/ha
# How it was run: as §1
# ryegrass, Italian [9] = assay: Test C postemergence; format: in vivo, Lolium multiflorum; conditions: Postemergence, 1000 g ai/ha
# How it was run: as §1
# foxtail, giant [10] = assay: Test C preemergence; format: in vivo, Setaria faberi; conditions: Preemergence, 1000 g ai/ha; visual rating after 10 days, 0 to 100 scale (0 no effect, 100 complete control)
# How it was run: as §1
# corn = assay: Test C postemergence; format: in vivo, Zea mays; conditions: Postemergence, 1000 g ai/ha
# How it was run: as §1
# barnyardgrass [11] = assay: Test C postemergence; format: in vivo, Echinochloa crusgalli; conditions: Postemergence, 1000 g ai/ha
# How it was run: as §1
# Pigweed, Redroot [12] = assay: Test C postemergence; format: in vivo, Amaranthus retroflexus; conditions: 1000 g ai/ha
# Source text: as §2
# [13] = 0 to 100 scale, 0 no effect, 100 complete control
# [14] = 10 days, visual 0 to 100 scale (0 no effect, 100 complete control)
Structure (SMILES),"Plant response rating, Kochia (kochia [1])","Plant response rating, Ryegrass, Italian (ryegrass, Italian [2])","Plant response rating, Foxtail, Giant (foxtail, giant [3]; [13])","Plant response rating, Barnyardgrass (barnyardgrass [4])","Plant response rating, Pigweed, Redroot (Pigweed, Redroot [5])","Plant response rating, Kochia (kochia [6]; [13])","Plant response rating, Ragweed (ragweed [7]; [13])","Plant response rating, Ragweed (ragweed [8])","Plant response rating, Wheat (wheat; [13])","Plant response rating, Galium (galium; [13])","Plant response rating, Blackgrass (blackgrass; [13])","Plant response rating, Ryegrass, Italian (ryegrass, Italian [9]; [13])","Plant response rating, Foxtail, Giant (foxtail, giant [10])","Plant response rating, Corn (corn; [13])","Plant response rating, Barnyardgrass (barnyardgrass [11]; [13])","Plant response rating, Pigweed, Redroot (Pigweed, Redroot [12]; [13])",also measured
CC1CN(C(=O)c2ccnc(-n3ccnc3)c2)c2cccc(Cl)c2O1 (stereo not drawn) [Compound 197],0,0,0,0,30,10,0,0,0,30,0,0,30,0,0,50,–
C[C@H]1CN(C(=O)c2cccc(-c3ccncn3)c2)c2cccc(Cl)c2O1 [Compound 287],30,20,–,60,0,–,–,0,–,–,–,–,0,–,–,–,"Plant response rating, Foxtail, Giant (foxtail, giant [3]; [14]): 10; Plant response rating, Kochia (kochia [6]; [14]): 10; Plant response rating, Ragweed (ragweed [7]; [14]): 0; Plant response rating, Wheat (wheat; [14]): 0; Plant response rating, Galium (galium; [14]): 20; Plant response rating, Blackgrass (blackgrass; [14]): 0; Plant response rating, Ryegrass, Italian (ryegrass, Italian [9]; [14]): 0; Plant response rating, Corn (corn; [14]): 0; Plant response rating, Barnyardgrass (barnyardgrass [11]; [14]): 20; Plant response rating, Pigweed, Redroot (Pigweed, Redroot [12]; [14]): 20"
C[C@H]1CN(C(=O)c2cccc(-c3cccnc3)c2)c2cccc(Cl)c2O1 [Compound 200],0,0,0,0,0,0,0,0,0,30,0,0,0,20,10,20,–

# Source: patent US20260262643A1, “HERBICIDAL BENZOXAZINES” (FMC CORPORATION, priority 2022, published 2026)
